According to US20250009791A1, “METHOD FOR PREVENTION AND REDUCTION OF SKIN STASIS WITH COMPOSITIONS AND MATERIALS COMPRISING COPPER COMPOUNDS” (MEDCU TECHNOLOGIES LTD., priority 2018, published 2025):
“Also recorded” adds a separate entry of the source.

Tests used:
TGF-β = TGF-β secretion into spent medium by ELISA; format: cell-based, human
Method: (§1) During harvesting time points, the spent medium from all Test Groups was collected and centrifuged at 1500×g for 5 minutes to remove particulates. Media were kept at −80° C. until use. The secretion levels of IL-6, IL-8 and TGF-β were measured by commercial Enzyme-Linked Immunosorbent Assay (ELISA) kits according to manufacturer instructions (Biolegend, San Diego, CA). Briefly, plates were coated for 24 hours prior to assay with a specific anti-human capture antibody. At the day of the assay, coated plates were incubated with samples, followed by washes for unbound molecules. Then additional detection antibody was added and detected by Avidin-HRP solution. Finally, wells were incubated with a substrate solution, while absorbance was measured at 570 nm.
(§2) In order to further understand how addition of copper ions affected the skin explants, the amounts of Interleukin 6 (IL-6), Interleukin 8 (IL-8) and transforming growth factor beta (TGF-β) found in the medium of the various treated explants were determined. FIGS. 3a, 3c and 3e show the cytokine expression in burn-induced inflammation in human ex vivo skin and comparison between the IL-6, IL-8 and TGF-β secretion by the untreated skin explants (Naïve Controls) and the wounded skin explants (Burn Controls) following wounding. In these figures, the p values of a t-test between the cytokine expressions per a particular day following wounding are shown. Measurements were normalized to amount of cytokine secreted from normal skin and are presented as percent of Naïve control.
Reference is also made to FIGS. 3b, 3d and 3f showing the effect of addition of copper ions (0.02 μM or 1 μM) on secretion of IL-6, IL-8 and TGF-β, respectively, as compared to Naïve Controls and Burn Controls on Day 4 (treated with saline only) (FIGS. 3b and 3d) and on Day 6 (FIG. 3f) after wounding. In the graphs, the star sign “*” indicates the statistically significant difference as compared to the Naïve Controls, while the net sign “#” indicates the statistically significant difference as compared to the untreated (treated with saline only) Burn Controls.

IL-6 = IL-6 secretion into spent medium by ELISA; format: cell-based, human
Method: as §1, with “nm. In order to further understand how addition of copper ions affected the skin explants, the amounts of Interleukin 6 (IL-6), Interleukin 8 (IL-8) and transforming growth factor beta (TGF-β) found in the medium of the various treated explants were determined. FIGS. 3a, 3c and 3e show the cytokine expression in burn-induced inflammation in human ex vivo skin and comparison between the IL-6, IL-8 and TGF-β secretion by the untreated skin explants (Naïve Controls) and the wounded skin explants (Burn Controls) following wounding. […]” for “nm.”

[1] = tested on: Ki67 stained cells in burned human skin explants; assay: Ki67 immunostaining of proliferating keratinocytes at the re-epithelisation area; format: cell-based; details: FIG. 7
Method: Immunostaining with Rabbit-anti Ki67 (Abcam, UK) was performed following rehydration, blocking in 2% BSA in PBS for 20 mins, for 2 hours, followed by exposure to Goat Anti-Rabbit IgG H&L (HRP) for one hour and detection by DAB substrate (Abcam, UK). Washes were then performed in 0.025% Tween/PBS. Counterstain was performed with haematoxylin (Sigma, Israel). Images were captured using Zeiss® PrimoVert microscope connected to Motic® Moticam 5+ camera.

[2] = tested on: burned human skin explants; assay: Histology of skin explants (H&E, Masson's trichrome); format: cell-based
Method: At indicated harvesting time points, skin explants were fixed with 4% formaldehyde for 1 hour at room temperature. Then, the samples were washed twice with PBS and kept at 70% ethanol at 2-8° C. until use. Following dehydration in gradual increasing concentrations of ethanol and embedment, paraffin sections (8 μm) were prepared, pasted on slides and either stained with haematoxylin and eosin (H&E) or Masson trichrome stain, according to the manufacturer specification (Sigma-Aldrich) followed by mounting with DPX mountant (Sigma, Israel).
Examination of tissue formation was performed on day 12 and 27. Sections of Normal and Burned skin, treated or not with copper ions were stained with H&E and Masson's trichrome staining respectively. FIGS. 6a-6c show full length images of sections stained with H&E.

[3] = tested on: burn wounds on human skin explants (zone of stasis); assay: Burn wound area measurement in ex-vivo human skin explant burn model; format: cell-based; details: for size of the wounds compared with wounds treated with saline only: 0.02 μM copper ions
Method: Human skin was obtained from healthy donors undergoing abdominal dermolipectomy after receiving informed consent. A 0.5 mm split-thickness skin graft was harvested using a dermatome (Aesculap AG & Co. KG, Tuttlingen, Germany) and was cut into 1 cm^2 pieces. Round burn wounds of with a diameter of […] were inflicted in the 0.7 cm^2 skin pieces by exposure to a soldering iron (95° C., 2 Sec). Triplicate pieces were kept intact as naïve controls. The injured and intact skin samples were placed dermis down on a stainless-steel grid and cultured at the air-liquid interface at 37° C. with 5% CO2 in Dulbecco's Modified Eagle's Medium (DMEM), 10% fetal calf serum (Biological Industries, Beit Ha′emek, Israel), and penicillin/streptomycin (100 IU/mL penicillin, […] streptomycin; Invitrogen). Culture medium was refreshed twice a week. The explants were cultured up to 27 days after wounding. Each individual experiment was performed with skin explants obtained from the same individual and the experiments were repeated at least three times. Reference is now made to FIGS. 1a and 1b schematically showing a side view and a top view, respectively, of this ex-vivo explant model. The skin explants are placed dermis down on a stainless-steel grid. Culture media is added to the bottom of the well, without reaching the epidermal layer, which is exposed to the air. […] From the stock solutions, solutions of 0.02 μM or 1 μM of copper ions were prepared in saline. […] Each control and treatment were performed in at least three replicate explants. Skin was obtained from 35-65-year-old healthy patients undergoing abdominoplasty surgery. The patient's under general anesthesia, went standard or circumferential abdominoplasty. After excision of the excess skin, the subcutaneous fat was removed using sterile technique. The defatted full-thickness skin was submerged in culture medium and transferred to the laboratory. The skin was cut into 8×8 mm squares by costume made apparatus. Round 0.8 mm diameter burn wounds were inflicted on the skin explants by exposure to a soldering iron (200° C., 10 Sec). The injured (burnt) and control intact skin samples were placed dermis down and kept at the air-liquid interface at 37° C. with 5% CO2 in Dulbecco's Modified Eagle's Medium supplemented with 100 IU/mL penicillin and […] streptomycin and 10% serum (Biological Industries, Beit Ha′emek, Israel). Culture medium was refreshed every 48 hours, i.e. immediately following injury and then again, every 48 hours, saline only or containing 0.02 μM or 1 μM copper ions were added onto the skin explant burn wounds. The explants were cultured up to 27 days after wounding. Pictures of burns were captured using Motic® Moticam 5+ camera at designated time points. Wound area was measured using ImageJ software suit. […]

[4] = tested on: epidermis of human skin explants; assay: MTT viability assay of the epidermis of skin explants; format: cell-based; details: 0.02 μM or 1 μM copper ions
Method: To assess the cell viability throughout the culture period a 3-(4,5-dimethylthiazol-2-yl)-2,5-diphenyltetrazolium bromide (MTT) assay was performed at different days after wounding as follows:
To assess the cell viability throughout the culture period a 3-(4,5-dimethylthiazol-2-yl)-2,5-diphenyltetrazolium bromide (MTT) assay was performed 1, 3, 5, 10, 14, 21 and 27 days, following wounding, as follows: skin explants were incubated for 60 sec in pre-warmed PBS (56° C.). Then the epidermis layer of each replicate was separated from the dermis by grabbing the tissue edge with tweezers and peeling the epidermis off using a scalpel. Epidermal pieces were transferred to 96 well-plate, each well contains 150 μl MTT (Sigma, 0.5 mg/ml) and incubated for 1 hour at 37° C. and reduced light conditions. Then, the epidermis pieces were transferred to a new 96 well-plate containing 150 μl of isopropanol. Plates were placed for 5 min, 200 rpm in a plate shaker (MRC, Beijing, China). Following incubation, epidermis sections were removed, and absorbance was measured at 570 nm in Tecan plate reader (Tecan Group Ltd. Switzerland).

IL-8 = IL-8 secretion into spent medium by ELISA; format: cell-based, human
Method: as §1
as §2, with “In these figures, the p values of a t-test between the cytokine expressions per a particular day following wounding are shown. Measurements were normalized to amount of cytokine secreted from normal skin and are presented as percent of Naïve control.” left out

[Cu+] [copper ions]
burn-induced increase of TGF-β compared with Burn Controls (TGF-β; 0.02 μM or 1 μM copper ions from both copper sources, Day 4 (FIG. 3f)): dramatically inhibited; also recorded: significantly attenuated or abolished; also recorded: significantly inhibited | TGF-β level (TGF-β; Day 6 and onwards): returning to normal levels | TGF-β secretion compared with Burn control samples (TGF-β; other examined days): no statistically significant differences | levels of IL-6 (IL-6; Day 1 following the burn): dramatically elevated in the Burn Controls but not in the copper ion treated samples | IL-6 levels compared with Burn Control samples (IL-6; after Day 4): no significant differences in IL-6 levels | amount of Ki67 stained cells compared to control ([1]; 0.02 μM copper ions): significantly higher amount of Ki67 stained cells | newly proliferating cells stained with Ki67 ([1]; skin pieces fixed after 12 days): significantly more common | re-epithelisation (epithelia regeneration) ([2]; 0.02 μM and 1 μM copper ions, 12 days, H&E, vs Burn Control): Beginning of epithelia regeneration (grey arrows) is seen; also recorded: newly formed epithelia | detachment of the epidermal tissue from the dermis ([2]; 0.02 μM or 1 μM copper ions, day 12, H&E, FIGS. 6b and 6c): less detached of the epidermal tissue from the dermis | re-epithelisation ([2]; Day 27, Masson's trichrome, FIG. 4c, vs control samples): clear re-epithelisation occurred | collagen stain / amount of collagen fibers in the dermal layer ([2]; Day 27, Masson's trichrome, FIG. 4c, vs saline-treated control): an increase in the amount of collagen fibers; also recorded: greater collagen stain | size of the wounds compared with wounds treated with saline only ([3]; 5 and 10 days following wounding): similarly smaller wounds | size of the wounds compared with wounds treated with saline only ([3]; three days following wounding): statistically smaller than the wounds which are treated with saline only | burn size at the end of the experiment ([3]; end of the experiment): not massively improved | increase in burn size that occurs after the initial damage ([3]; topical application of the ions): prevented the increase in burn size | viability of burned skin explants compared with untreated pieces ([4]; 5 days after burn, differences not statistically significant): a trend of increased viability | viability of burned skin explants compared with untreated pieces ([4]; after 1 day): remained similar to the untreated pieces | burn-induced increase of IL-8 compared with Burn Controls (IL-8; 0.02 μM or 1 μM copper ions from both copper sources, Day 4 (FIG. 3d)): significantly lower; also recorded: significantly attenuated or abolished | amount of IL-8 secreted compared with Burn control samples (IL-8; Day 1): did not differ significantly
